Experimental findings from patent US6458960B1, “Sulfonamide derivatives” (Nippon Kayaku Kabushiki Kaisha, priority 1997, dated 2002) are described below.

In brackets after ≈: the same amount, converted by molar mass.

The target of test [1] is T1, microtubule proteins originated from swine brain (Sus scrofa, UniProt P02550+P02554).
T1 construct: Microtubule proteins was extracted from swine brain by the Shelansky method; from tissue; host or cells: swine brain
Briefly: Tubulin polymerization inhibitory test (turbidity measurement). It is filed as biochemical. Conditions: microtubule proteins 2 mg/ml, GTP 1 mM, 37° C. for 30 min, absorbance at 340 nm; read-out: IC50 (tubulin polymerization inhibition) (converted). The procedure:
Tubulin polymerization inhibitory test using microtubule proteins originated from swine brain: Microtubule proteins was extracted from swine brain by the Shelansky method(Tanpakusitu jikkenhou, Zoku-Seikagaku Jikken Kouza, Vol.6, “Structure and Function of Cytoskeleton” (1st Vol.), Tokyo Kagaku Dojin). Polymerization of microtubule proteins was assayed by turbidity measurement.
Change in turbidity can be measured by an absorptiometer. The compounds of the present invention were dissolved in dimethylsulfoxide to prepare their test solutions. To 245 μl of a RB solution containing microtubule proteins(2 mg/ml)and GTP(1 mM) was added 5μl of either an above test solution or dimethylsulfoxide to prepare a sample, which was incubated at 37° C. for 30 min. […] Absorbance at 340 nm of the compound was previously measured.
Inhibitory Rate(%)=[1−(T−Cmin)/(Cmax−Cmin)]×100
where T is absorbance of the incubated sample with a test compound, Cmax is absorbance of the incubated sample without the compound, and Cmin is the non-incubated sample without the compound.

Test [2] concerns A2780 (Humane Ovarian Cancer Cell). Briefly: Anti-tumor in vitro test using A2780 (MTT). It is filed as cell-based. Conditions: Homo sapiens, A2780, 72 h, 3 days incubation, absorbance at 540 nm, read-out: IC50 (A2780 growth inhibition). On the procedure:
A2780 cells that were suspended on a RPMI 1640 culture medium containing 10% calf serum, penicillin (50 U/ml), and streptomycin (50 μg/ml were seeded in a 96 well flat microplate by 1000 cells (0.2 ml) well, and cultured in a 5% carbon dioxide atmospheric incubator at 37° C. for 1 day. The compounds of the present invention that were dissolved in dimetylsulfoxide anddiluted with a RPMI 1640 containing 10% calf serum to prepare the samples, provided that dimetylsulfoxide was restricted to 0.2% and below in concentration.
The Supernatant liquids of the above A2780 cells wells were removed by aspiration, and then each 0. 2 ml of the prepared samples were added to the wells, which were incubated in a 5% carbon dioxide atmospheric incubator at 37° C. for 3 days. After the incubation, each 0.01 ml of MTT solutions(3-(4,5-dimethylthiazole-2-yl)-2,5-dipheny-ltetra zolium bromide, 5 mg/ml) were added to the wells, which were incubated for another 2 hrs. After the supernatant liquids in the wells were removed by aspiration, the formazans formed in the wells were dissolved in 0.1 ml of dimetylsulfoxide, and absorbances at 540 nm were measured by a micro plate reader to determine indices of live cells counts in the wells.
Inhibitory Rate(%)=[(C−T)/C]×100
where T is absorbance in the well with a test compound and C is absorbance in the well without the compound.

Test [3] deals with collagen-induced arthritis in mice. Briefly: Prophylactic experiment of collagen-induced arthritis in mice. It is filed as in vivo. The note with it: 50 mg/kg orally once a day for 5 weeks, last day of test. On the procedure: The suspension of M. tuberculosis H37RA in Freund […] adjuvant (2 mg/ml) was mixed with 0.3% typeII collagen (extracted from bovine articular cartilage, Collagen Gijutsu KensyU Kai) in their equal amounts to form an emulsion, 0.1 ml of which was injected subcutaneously into the base of the tail of mice to sensitize it. After twenty-one days, 0.3% type II collagen was diluted with physiological saline solution to the one sixth concentration of the solution, 0.2 ml of which was injected intraperitoneally to sensitize secondarily. The mice that the first sensitizations caused to fall into arthritis were excluded from the test. The suspensions of the compounds(in the Example 13, 27, and 28) in 0.5% sodium carboxy methylcellulose (CMC—Na) were administrated orally to the test group mice once a day for 5 weeks from the day after the second sensitization. 0.5% CMC—Na solutions were administrated to the control group mice to be compared with. Each group was composed of eight mice. […] Scores and their standards are as follows.
1: Tumefaction or rubor in only one finger(or heel)
2: Tumefaction or rubor in two or above fingers (or heels) or in parts of fore (or hind) paw(s)
3: Tumefaction or rubor in the wholes of fore (or hind) paw(s) including joints
4: Ankylosis in the joints of finger(s) (or heel(s)) or fore (or hind) paw(s)

T1 sequence (P02550 whole entry): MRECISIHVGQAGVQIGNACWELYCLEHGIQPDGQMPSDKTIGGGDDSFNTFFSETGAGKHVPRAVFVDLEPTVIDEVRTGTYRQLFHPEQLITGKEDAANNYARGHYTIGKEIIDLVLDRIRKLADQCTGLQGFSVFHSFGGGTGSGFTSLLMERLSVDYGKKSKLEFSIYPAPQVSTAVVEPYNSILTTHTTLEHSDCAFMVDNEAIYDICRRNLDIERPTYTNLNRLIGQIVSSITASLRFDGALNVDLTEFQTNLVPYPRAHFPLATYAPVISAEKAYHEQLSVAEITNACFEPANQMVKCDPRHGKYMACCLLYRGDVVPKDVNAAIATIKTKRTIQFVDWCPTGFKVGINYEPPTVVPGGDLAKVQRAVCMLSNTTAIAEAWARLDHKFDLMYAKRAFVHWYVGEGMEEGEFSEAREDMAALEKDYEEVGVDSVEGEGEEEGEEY
T1 sequence (P02554 whole entry): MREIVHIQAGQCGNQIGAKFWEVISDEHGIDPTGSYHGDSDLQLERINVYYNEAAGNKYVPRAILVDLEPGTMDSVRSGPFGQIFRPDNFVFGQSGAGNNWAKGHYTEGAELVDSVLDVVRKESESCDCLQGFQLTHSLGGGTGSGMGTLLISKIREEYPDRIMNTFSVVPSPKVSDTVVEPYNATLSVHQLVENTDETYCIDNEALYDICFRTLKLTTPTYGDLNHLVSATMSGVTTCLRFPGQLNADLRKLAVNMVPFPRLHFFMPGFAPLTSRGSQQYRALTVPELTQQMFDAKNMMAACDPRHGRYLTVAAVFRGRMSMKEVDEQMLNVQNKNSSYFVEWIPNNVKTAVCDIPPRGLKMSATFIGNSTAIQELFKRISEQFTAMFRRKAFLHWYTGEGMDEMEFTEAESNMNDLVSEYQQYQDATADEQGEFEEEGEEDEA

Turning to `CCc1onc(C)c1C(=O)Nc1ccccc1NS(=O)(=O)c1ccc(OC)cc1` [Example 28, N-[2-(4-Methoxybenzenesulfonamide)phenyl]-5-ethyl-3-methyl-4-isoxazole Carboxamide], the IC50 (commonly the concentration that inhibits the measured activity by half) was 3.13 µM in test [1] and 0.013 µg/mL (≈ 0.0313 µM) in test [2]. Further, the “Averaged score (arthritis, 0 to 4 per limb, maximum 16)” value in test [3] turned out to be 3.0 ± 1.1.
